pIC50, pKd: −log10 of the molar value.
What was measured:
[1] = target: T1, Human (6-His)Sortilin (Homo sapiens, UniProt Q99523); test: Human Sortilin GCI (Grating-Coupled Interferometry) binding assay; details: Creoptix WAVE-RAPID, single concentration, immobilised Human (6-His)Sortilin, 1:1 kinetic binding model; read-out: h-Sortilin GCI KD
T1 construct: purchased RnD Systems
T1 sequence (Q99523 78-831): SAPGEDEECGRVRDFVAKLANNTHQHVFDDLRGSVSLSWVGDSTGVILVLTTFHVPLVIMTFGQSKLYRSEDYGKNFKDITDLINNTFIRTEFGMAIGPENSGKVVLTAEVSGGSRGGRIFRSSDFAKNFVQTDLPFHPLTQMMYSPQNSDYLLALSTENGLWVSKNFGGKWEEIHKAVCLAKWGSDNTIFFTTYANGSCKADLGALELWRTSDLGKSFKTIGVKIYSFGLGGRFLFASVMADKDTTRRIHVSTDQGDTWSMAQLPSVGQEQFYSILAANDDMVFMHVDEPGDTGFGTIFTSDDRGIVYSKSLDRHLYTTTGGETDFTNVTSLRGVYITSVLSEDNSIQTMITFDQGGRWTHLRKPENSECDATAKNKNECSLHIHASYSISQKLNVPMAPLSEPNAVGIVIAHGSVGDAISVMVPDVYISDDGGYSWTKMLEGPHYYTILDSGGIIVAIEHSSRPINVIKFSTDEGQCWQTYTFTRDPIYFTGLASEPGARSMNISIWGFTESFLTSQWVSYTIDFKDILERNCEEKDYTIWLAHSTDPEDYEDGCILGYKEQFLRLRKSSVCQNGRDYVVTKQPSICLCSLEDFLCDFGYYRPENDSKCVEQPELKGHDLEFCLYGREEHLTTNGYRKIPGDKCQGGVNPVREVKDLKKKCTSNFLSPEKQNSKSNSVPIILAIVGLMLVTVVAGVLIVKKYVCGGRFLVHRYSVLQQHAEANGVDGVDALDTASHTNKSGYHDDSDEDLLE
Procedure: The exemplified compounds of the invention were tested in a Grating-Coupled Interferometry (GCI) Sortilin binding assay. The Equilibrium dissociation constant (KD) is a measure of the propensity of a complex (i.e: a ligand and receptor) to dissociate and is used to describe the affinity of an interaction between the constituents of the complex (i.e: a ligand and receptor). The skilled person will recognise that the lower the KD value, the less of the compound needed to achieve the desired effect, and as a result, the chances of undesirable off-target effects are reduced.
Compound affinity was determined by measuring the association and dissociation of compounds to Human (6-His)Sortilin (RnD Systems) using a Creoptix Wave instrument (Creoptix - Malvern Panalytical). Both Human (6-His)Sortilin immobilisation and compound evaluation were performed in HBS-N running buffer: 10 mM HEPES pH 7.4, 150 mM NaCl, 1 % DMSO - Cytiva which was filtered and degassed for 15 minutes before use.
A 4PCH WAVEchip (Creoptix - Malvern Panalytical) was conditioned prior to immobilisiation using 0.2x HBS-N running buffer with 0.1 M Borate pH 9.0, 1 M NaCl (Xantec Bioanalytics) injected across all flow cells. A buffer exchange was performed to 1x HBS-N running buffer and Human (6-His)Sortilin was immobililised in pH 5.0 Acetate solution (Cytiva) via amine coupling following EDC/NHS (Cytiva) surface activation and then passivated via injection of 50 mM Tris pH 7.4.
Compounds were tested in 'WAVE-RAPID' assays at a single concentration (usually: 1 µM, 10 µM or 100 µM) in time-response format (short pulses of increasing duration) using either 'Weak-Binders' (Settings: 400 µl/min flow rate, 40 Hz acquisiton rate, 5 seconds association time and 20 seconds dissociation time) or 'Intermediate Binders' (Settings: 100 µl/min flow rate, 10 Hz acquisiton rate, 25 seconds association time and 300 seconds dissociation time) settings. Which was deemed most appropriate was based upon the affinity and kinetics of the compound tested.
DMSO calibration was performed as per manufacturers requirements by injection of running buffer containing DMSO 0.5% above that of the running buffer DMSO (1.5 % in that instance) every 20 cycles. All data was double referenced (blank and reference-channel subtracted) with KD values calculated by fitting to a `1:1 kinetic' binding model using 'WAVEcontrol' software (Creoptix - Malvern Panalytical).

[2] = target: T2, h-Sortilin (Homo sapiens, UniProt Q99523); test: Neurotensin scintillation proximity assay (SPA), displacement of [3H]-neurotensin binding; details: 150 nM 6his-Sortilin, 5 nM [3H]-Neurotensin, 8 concentrations, average of at least 2 determinations
T2 sequence (Q99523 78-831): T1 sequence (Q99523 78-831)
Procedure: The exemplified compounds of the invention were tested in a Neurotensin (NTS) scintillation proximity assay (SPA). NTS, which is a 13 amino acid neuropeptide, is a sortilin ligand. The IC50 is a measure of the amount of the compound required to inhibit the binding of NTS to sortilin by 50%. The skilled person will recognise that the lower the IC50 value, the less of the compound needed to achieve the desired effect, and as a result, the chances of undesirable off-target effects are reduced.
Compound affinity was determined by measuring the displacement of [^3H]-neurotensin binding to h-Sortilin in SPA format. Total volume of 40 µl in 50 mM HEPES pH 7.4 assay buffer containing 100 mM NaCl, 2.0 mM CaCl2, 0.1% BSA and 0.1% Tween-20. Compound pre-incubation for 30 minutes at room temperature with 150 nM of 6his-Sortilin before 5 nM [3H]-Neurotensin and Ni chelate imaging beads (Perkin Elmer) were added, after 6 hours the plate was read on a ViewLux with 360 s exposure time. Dose-response evaluation of compounds was performed with 8 concentrations of drugs (covering 3 decades). IC50 values were calculated by nonlinear regression using the sigmoid concentration-response (variable slope) using CDD Vault software. All values reported are average of at least 2 determinations.

| pKd [1] | pIC50 [2] | Compound |
| --- | --- | --- |
| 6.15 | – | CC(C)(C)CCC(C)(NCc1ccc2c(c1)OCCC2)C(=O)O (racemic) [Example 5, 2-{[(7-chromanyl)methyl]amino}-2,5,5-trimethylhexanoic acid] |
| 6.29 | – | CC(C)(C)CCC(C)(NCc1ccc2c(c1)CCOC2)C(=O)O (racemic) [Example 7, 2-{[(6-isochromanyl)methyl]amino}-2,5,5-trimethylhexanoic acid] |
| 6.52 | 6.13 | CC(C)(C)CCC(C)(NCc1ccc2c(c1)CCCC2)C(=O)O (stereo not drawn) [Example 1, 2,5,5-trimethyl-2-(((5,6,7,8-tetrahydronaphthalen-2-yl)methyl)amino)hexanoic acid] |
| 6.12 | – | CC(C)(C)CCC(C)(NCc1ccc2c(c1)CCCO2)C(=O)O (racemic) [Example 6, 2-{[(6-chromanyl)methyl]amino}-2,5,5-trimethylhexanoic acid] |
| 6.23 | – | CC(C)(C)CCC(C)(NCc1ccc2c(c1)COCC2)C(=O)O (racemic) [Example 8, 2-{[(7-isochromanyl)methyl]amino}-2,5,5-trimethylhexanoic acid] |
| 7.10 | 6.36 | CC(C)(C)CC[C@](C)(NCc1ccc2c(c1)CCCC2)C(=O)O [Example 2, (S)-2,5,5-trimethyl-2-(((5,6,7,8-tetrahydronaphthalen-2-yl)methyl)amino)hexanoic acid] |
| – | 5.97 | CC(C)(C)CCC(C)(NCc1ccc2c(c1)CCC2)C(=O)O (racemic) [Example 4, 2-{[(5-indanyl)methyl]amino}-2,5,5-trimethylhexanoic acid] |

Reference: patent EP4428122A1, “SORTILINE MODULATORS” (Vesper Bio Aps, priority 2023, dated 2024)
